Results reported in US10383861B2, “3-(1H-pyrrolo[2,3-C]pyridin-2-yl)-1H-pyrazolo[3,4-C]pyridines and therapeutic uses thereof” (Samumed, LLC, priority 2015, dated 2019).
pEC50: −log10 of the molar value.

Columns and labels:
Format in all cases: cell-based
[1] = system: Wnt activity; experiment: Wnt activity screening assay, Sp5-Luc reporter gene in SW480 cells; settings: Homo sapiens; for inhibition at 10 µM: SW480, read-out: percent inhibition at 10 μM; for pEC50: Sp5-Luc reporter, SW480 cells, overnight incubation
Outline: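 SW480 cells stably transduced with lentiviral Sp5 promoter (eight TCF/LEF sites)-firefly luciferase, plated at 4,000 cells/well in 1% FBS medium and incubated overnight at 37° C. Luminescence read after BrightGlo addition, normalized to DMSO-only cells; EC50 from four-parameter variable-slope nonlinear regression.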

[2] = system: SW480 colon cancer cells; experiment: Cell viability assay (CellTiter-Blue) in SW480 colon cancer cells; settings: Homo sapiens; for pEC50: 96 h, SW480 cell viability, four days, CellTiter-Blue; for inhibition at 10 µM: SW480, read-out: percent inhibition at 10 μM
Outline: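 Fluorescence from resazurin reduced to resorufin by metabolically active cells was the read-out, taken after ~3 h with CellTiter-Blue.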

[3] = system: primary human fibroblasts derived from IPF patients (LL29 cells); experiment: Inhibition of the fibrotic process: αSMA staining in TGF-β1 treated LL29 fibroblasts; settings: Fibroblast; for pEC50: 96 h, LL29 cells, TGF-β1 20 ng/mL, 4 days, % αSMA positive cells; for inhibition at 10 µM: read-out: percent inhibition at 10 μM
Outline: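 IPF-patient-derived LL29 lung fibroblasts in F12 with 1% FBS, stimulated with TGF-β1 alongside compound; TGF-β1 plus DMSO wells served as controls. After 4 days, nuclei stained with 1 μM SYTOX green for 30 min at room temperature, alongside αSMA staining.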

[4] = system: primary human mesenchymal stem cells (hMSCs); experiment: Induction of chondrogenesis in hMSCs (nodule count, Rhodamine B/Nile Red); settings: 6 days; for Emax: relative to TGF-β3 (10 ng/mL) positive control, read-out: Max. Activity as % TGF-β3 activity; for EC50: concentration required to induce 50% levels of chondrogenesis vs TGF-β3, read-out: Conc (nM) of 50% TGF-β3 activity
Text: Representative compounds were screened using primary human mesenchymal stem cells (hMSCs) to determine their ability to induce chondrogenesis (process by which cartilage is developed).
Primary human mesenchymal stem cells (hMSCs) were purchased from Lonza (Walkersville, Md.) and expanded in Mesenchymal Stem Cell Growth Media (Lonza). Cells between passage 3 and 6 were used for the experiments.
To image chondrogenic nodules, the cells were fixed using 4% formaldehyde (Electron Microscopy Sciences), and stained with 2 μg/mL Rhodamine B (Sigma-Aldrich) and 20 μM Nile Red (Sigma-Aldrich) [Johnson K., et.al, A Stem Cell-Based Approach to Cartilage Repair, Science, (2012). […] Number of nodules in each well was normalized to the average of 3 DMSO treated wells on the same plate using Excel (Microsoft Inc.). The normalized averages (fold change over DMSO) of 3 replicate wells for each compound concentration were calculated. Due to solubility limitations of some of the compounds, curve fitting was incomplete leading to inaccurate EC50 determinations.
Using TGF-β3 as a positive control, the concentration of representative compounds required to induce 50% levels of chondrogenesis is reported. In addition, the maximum activity of each compound and the respective dose that each compound reached maximum chondrogenesis activity is reported.

[5] = system: IL-6; experiment: IL-6 inhibition in LPS-stimulated THP-1 cells (HTRF); settings: Homo sapiens; for inhibition at 10 µM: THP-1, read-out: percent inhibition at 10 μM; for pEC50: THP-1 cells, LPS 500 ng/mL, 22 hours, IL6 HTRF
Outline: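 THP-1 cells kept 24 h in 1% FBS medium, treated 2 h at 37 °C, then stimulated with 500 ng/mL LPS for another 22 h. IL-6 measured by HTRF as the 665/620 nm ratio; EC50 from a four-parameter fit normalized to DMSO controls.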

Row | SMILES | inhibition at 10 µM [1] | pEC50 [1] | pEC50 [2] | inhibition at 10 µM [2] | pEC50 [3] | Emax [4] | inhibition at 10 µM [5] | pEC50 [5] | inhibition at 10 µM [3] | EC50 [4]
1 | CC(C)(C)C(=O)Nc1cncc(-c2cc3c(-c4cc5c(-c6ccncc6)cncc5[nH]4)n[nH]c3cn2)c1 [Compound 120, N-(5-(3-(4-(Pyridin-4-yl)-1H-pyrrolo[2,3-c]pyridin-2-yl)-1H-pyrazolo[3,4-c]pyridin-5-yl)pyridin-3-yl)pivalamide] | 22% | < 5.00 | < 5.00 | 29% | 5.27 | 30% | 16.4% | < 5.00 |  | 
2 | CN(C)Cc1cncc(-c2cc3c(-c4cc5c(-c6ccncc6)cncc5[nH]4)n[nH]c3cn2)c1 [Compound 125, N,N-Dimethyl-1-(5-(3-(4-(pyridin-4-yl)-1H-pyrrolo[2,3-c]pyridin-2-yl)-1H-pyrazolo[3,4-c]pyridin-5-yl)pyridin-3-yl)methanamine] | 18.7% | < 5.00 | < 5.00 | 5.3% | < 5.00 | 52% | 0% | < 5.00 | 2.9% | 30 nM
3 | Nc1cncc(-c2cc3c(-c4cc5c(N6CCCCC6)cncc5[nH]4)n[nH]c3cn2)c1 [Compound 171, 5-(3-(4-(Piperidin-1-yl)-1H-pyrrolo[2,3-c]pyridin-2-yl)-1H-pyrazolo[3,4-c]pyridin-5-yl)pyridin-3-amine] |  | 5.53 | 5.29 |  | 5.58 | 94% |  | 5.87 |  | 30 nM
4 | CC(C)CC(=O)Nc1cncc(-c2cc3c(-c4cc5c(-c6cc(F)cc(CNS(C)(=O)=O)c6)cncc5[nH]4)n[nH]c3cn2)c1 [Compound 478, N-(5-(3-(4-(3-Fluoro-5-(methylsulfonamidomethyl)phenyl)-1H-pyrrolo[2,3-c]pyridin-2-yl)-1H-pyrazolo[3,4-c]pyridin-5-yl)pyridin-3-yl)-3-methylbutanamide] | 18.8% | < 5.00 | < 5.00 | 4.1% | < 5.00 | 24% | 18.9% | < 5.00 | 37.6% | 
5 | CC(C)Nc1cncc(-c2cc3c(-c4cc5c(-c6cc(F)cc(CNS(C)(=O)=O)c6)cncc5[nH]4)n[nH]c3cn2)c1 [Compound 488, N-(3-Fluoro-5-(2-(5-(5-(isopropylamino)pyridin-3-yl)-1H-pyrazolo[3,4-c]pyridin-3-yl)-1H-pyrrolo[2,3-c]pyridin-4-yl)benzyl)methanesulfonamide] |  | 5.37 | < 5.00 | 11% | 5.59 | 17% | 46.8% | < 5.00 |  | 
6 | CS(=O)(=O)NCc1cc(F)cc(-c2cncc3[nH]c(-c4n[nH]c5cnc(-c6cncc(CN7CCCC7)c6)cc45)cc23)c1 [Compound 490, N-(3-Fluoro-5-(2-(5-(5-(pyrrolidin-1-ylmethyl)pyridin-3-yl)-1H-pyrazolo[3,4-c]pyridin-3-yl)-1H-pyrrolo[2,3-c]pyridin-4-yl)benzyl)methanesulfonamide] | 8.5% | < 5.00 | < 5.00 | 17.4% | < 5.00 | 8% | 0% | < 5.00 | 21.4% | 
7 | CS(=O)(=O)NCc1cc(F)cc(-c2cncc3[nH]c(-c4n[nH]c5cnc(-c6cncc(NC(=O)C7CCC7)c6)cc45)cc23)c1 [Compound 497, N-(5-(3-(4-(3-Fluoro-5-(methylsulfonamidomethyl)phenyl)-1H-pyrrolo[2,3-c]pyridin-2-yl)-1H-pyrazolo[3,4-c]pyridin-5-yl)pyridin-3-yl)cyclobutanecarboxamide] | 6.4% | < 5.00 | < 5.00 | 14.1% | < 5.00 | 15% | 0% | < 5.00 | 27.8% | 
